Assays:
suckling rats [1] = experiment: Papain vs microbial protease: macromolecule absorption (BSA, BIgG in plasma), Example 8; assay type: in vivo, Rattus norvegicus; details: day 17, 3 hours after feeding, in words (FIG. 14)
From the text: (§1) The litter size for each dam was limited to 12 or 13 pups, to reduce variability.
(§2) Suckling pups were divided into 3 groups depending on the treatments; microbial protease as a positive control, water as negative control and enzyme from papaya fruit (papain) (in total; protease=7, papain=8, control=7). The enzymes are available in the market in form of powders and were resolved in distilled water prior to stomach feeding during 14-16 d of age. The administered dose for each enzyme was 10000 USP/animal. The volume of administered enzymes and water (for control groups) was 0.01 ml/g b.wt. Prior to the feeding procedure, the pups were weighed. […] Three hours later, the pups were anaesthetized and organs were dissected out for analyses.

suckling rats [2] = experiment: Set I: intestinal morphology of distal SI, Example 3; assay type: in vivo, Rattus norvegicus; details: distal part of SI, in words
Protocol: All samples collected for histology were fixed with Bouin's solution for 24 hours and then stored in 70% ethanol, dehydrated, embedded into the paraffin and then cut into sections with 5 μm thickness. The tissue sections were transferred onto the slides, rehydrated and stained with H&E according to the standard technique. After mounting under cover slips samples were examined using light microscopy to estimate ratio between total length of the villus and length of the adult type enterocytes using ImageJ program.

suckling 14 d old rats = experiment: Exocrine pancreatic function (trypsin activity in pancreatic homogenates), Example 6; assay type: in vivo, rat; details: 3 d oral gavage, in words (FIG. 10)
From the text: Treated groups were compared to control, *p<0.05.
The same rat model as in Experiments 3-5 was used.
The effect of microbial-derived enzymes with pancreatic activity: protease, lipase, amylase and their mixture on exocrine pancreatic secretion after 3 d of oral gavage to suckling 14 d old rats (see experiment 3-5 above). Treated groups were compared to control, *p<0.05

suckling rats [3] = experiment: Set I: brush-border disaccharidase activity in proximal SI, Example 3; assay type: in vivo, Rattus norvegicus; details: proximal part of SI, in words (FIG. 5)
Protocol: The proximal samples of the SI were de-frozen and weighted and then homogenized with 9 parts of 0.9% NaCl (9 w/v). The homogenates (50 μl diluted samples) were incubated with the appropriate disaccharide (50 μl of 0.056M sucrose, maltose and lactose) for 1 hour at 37° C. After this, the liberated glucose was determined by adding glucose oxidase reagent (Sigma Chemicals), and incubated for 30 minutes. Then samples were transferred into the 96-well plate in triplication and the absorbance was measured at 450 nm. To measure the protein contents of the homogenates, Lowry method, was used, where BSA (Bovine Serum Albumin) was used as a standard. The results are presented as specific activity units per mg of protein (u/mg).

suckling rats [4] = experiment: Papain vs microbial protease: intestinal disaccharidase activity in proximal SI, Example 8; assay type: in vivo, Rattus norvegicus; details: proximal part of SI, in words (FIG. 13)
From the text: as §1, §2
The activities of the brush-border enzymes lactase, maltase and sucrase were analyzed in the proximal part of the SI in groups treated with papain and protease.

suckling rats [5] = experiment: Papain vs microbial protease: body and organ weight, Example 8; assay type: in vivo, Rattus norvegicus
From the text: as §1, §2

suckling rats [6] = experiment: Set I: plasma concentration of marker molecules BSA and BIgG (macromolecule absorption), Example 3; assay type: in vivo, Rattus norvegicus; details: 3 hours after marker feeding, day 17, in words (FIG. 6)
From the text: The plasma level of marker molecules was quantified by using immunoassay rocket electrophoresis and SRI (single radial immunodiffusion) for plasma BSA and BIgG respectively.

rat pups = experiment: Set III: health and growth monitored for 3 weeks after protease, early and normal weaning, Example 5; assay type: in vivo; details: protease 15 000 USP
From the text: In the last study, the health and the growth of the pups were monitored for 3 weeks. Pups where treated at age 14 day of life with the protease 15 000 USP/rat/day for 3 days once a day (on days 14, 15, and 16). This study performed using 3 litters (n=9, n=11 and n=10) where pups were divided into 2 groups; enzyme treated and control. After last feeding rat were further divided into subgroups: early weaning started on day 17 (n=8) and normal weaning started on day 21 (n=6). All animals were monitored via weighing for one week on a daily basis and then once a week for the next 2 weeks.

suckling piglets = experiment: Suckling pig model II: marker molecules absorption in vivo after microbial protease, Experiment 10; details: protease treated piglets vs control
Protocol: All piglets were kept with sow until the weaning day. Piglets from 5-6 litters divided into 2 groups and treated with microbial protease (Sigma) (enz group) or water (cont) (n=28 per group), total 56. The dose of enzymes was 60 mg/ml with activity 1000 USP per 1 mg, the administration volume was 4 ml/kg b. wt, the frequency of administration was every second day (ones a day). Treatment via gavage feeding was started at 8 d of age and was done 3 times, (i.e. 8, 10, 12 d of life).
Separate piglets (6 enzyme treated and 6 control pigs) were fed with marker molecule solution (Bovine serum albumin (BSA) in concentration 125 mg/ml and sodium fluorescein (NaF) in concentration 2.5 mg/ml; the administration volume was 4 ml/kg b.wt) at age 14 d of life and 27 d of life (the weaning day). Blood was collected at 0, […], 1, 2, 4, 8, and 24 hours after marker-cocktail feeding.

[7] = 10000 USP/animal, days 14-16, day 17

## Proteinase from Aspergillus melleus [Protease]
Suckling rats [1]
  uptake of macromolecules, BIgG absorption: significantly lower
Suckling rats [2]
  replacement of vacuolated enterocytes by adult type enterocytes: all of the vacuolated enterocytes were replaced with adult type enterocytes
Suckling 14 d old rats
  stimulation of the pancreatic function: most efficient enzyme for stimulation of the pancreatic function
Suckling rats [3]
  lactase activity: decreased
  maltase activity: significantly increased
  sucrase activity: significantly increased
Suckling rats [4]
  activity of maltase compared to control: significantly increased
  activity of sucrase compared to control: significantly increased
Suckling rats [5]; [7]
  Body weight: 34.8 ± 3.31 gr
  Cecum: 2.89 ± 0.47 mg/g BW
  Distal SI: 15.2 ± 2.3 mg/g BW
  Liver: 32.22 ± 1.37 mg/g BW
  Pncrease: 3.87 ± 0.34 mg/g BW
  Proxima SI: 20.24 ± 2.37 mg/g BW
  SI length: 1.59 ± 0.18 cm/g BW
  Spleen: 3.18 ± 0.23 mg/g BW
  Stomach: 6.71 ± 0.41 mg/g BW
  Thymus: 4.95 ± 0.93 mg/g BW
Suckling rats [5]; dose 10 000 USP, days 14 to 17, in words (FIG. 12)
  effect on body growth: No effect
Suckling rats [6]
  uptake of marker molecule BIgG to plasma: significantly lower
  uptake of marker molecule BSA to plasma: significantly lower
Rat pups; after first treatment
  diarrhea: signs of diarrhea
Rat pups; in words (FIG. 9)
  growth in comparison to control group: decrease in growth after first treatment
Rat pups; weaning day 17, in words
  effect of early weaning on treated group: no disadvantage
Suckling piglets; in words (FIG. 20A)
  intestinal permeability for BSA: decreased intestinal permeability
Suckling piglets; in words (FIG. 20B)
  intestinal permeability for NaF: decreased intestinal permeability
